This note sets out measurements from ChEMBL document CHEMBL1150683, “Two new carbazole alkaloids from Murraya koenigii” (J Nat Prod, 2003).

The assay addresses Cathepsin B (Homo sapiens, UniProt P07858). The experiment in a line: Inhibition of cathepsin B mediated osteoporotic activity.

The compound `COc1cc2c([nH]c3c4c(c(C)cc32)OC(C)(C)C=C4)c(-c2c(O)c(OC)cc3c2[nH]c2c4c(c(C)cc23)OC(C)(C)C=C4)c1O` had an IC50 of 2110 nM.

By IC50 is commonly meant the concentration that inhibits the measured activity by half. Low readings indicate inhibition by little substance, high ones a need for much substance.
